Measurements from publication PMC9646673, “A Novel, Orally Bioavailable, Small-Molecule Inhibitor of PCSK9 With Significant Cholesterol-Lowering Properties In Vivo” (Journal of Lipid Research, 2022).

How the values were obtained:
[1] = system: plasma PCSK9 protein levels; assay: First efficacy study: plasma total PCSK9 (ELISA); format: in vivo, mouse; conditions: 50 mg/kg BID PO, day 28
Source text: (§1) Animal experiments were approved by the governmental central committee on animal experiments (AVD5010020172064) and TNO’s animal welfare body (TNO-471 and TNO-482). Female APOE∗3-Leiden.CETP transgenic mice (11–16 weeks of age) were bred at the animal facility of TNO-InnoSer (Leiden, The Netherlands). Female animals were used in this study as they are more responsive to dietary cholesterol and fat than males and therefore typically develop atherosclerosis more rapidly than male APOE∗3-Leiden and APOE∗3-Leiden.CETP mice on cholesterol-containing diets ([33], [34]). […] Body weight, food intake, and clinical signs of behavior were monitored throughout the studies. […]
(§2) Treatment times were around 8:00 am and 4:00 pm each day. Throughout the in-life phase of the study, body weight and food intake (per cage) were measured at regular predetermined intervals while blood samples were collected every 7 days. […] Throughout the study, plasma cholesterol, triglycerides, HDL-C, lipoprotein profiles, PCSK9 expression levels, aspartate transaminase levels (AST), and alanine transaminase levels (ALT) were measured as described below.
In both studies, blood samples were collected at weekly intervals via tail vein sampling after fasting the mice for 4 h. […] Total plasma cholesterol levels were determined using a Cholesterol CHOD-PAP kit according to the manufacturer’s instructions. […]

[2] = system: APOE∗3-Leiden.CETP mice; assay: Fecal bile acid and neutral sterol content, cholesterol balance
Protocol: In a subsequent efficacy study, mice were treated identically to the first study with the following modifications. Mice in group 1 received vehicle solution (5% DMSO, 5% Solutol HS15, and 90% saline) twice daily by oral gavage. […] The study ran for a total of 35 days with blood and tissue collection and analysis performed as described below.
Analyses of fecal neutral sterol and bile acid contents were performed by gas chromatographic analysis as previously detailed ([37], [38]). Per treatment group, two cages of four mice per cage were used, with feces collected twice per cage during the last week of the study. The net cholesterol uptake, or cholesterol balance, was defined as the dietary cholesterol intake (food intake measured weekly) minus the summed fecal output of neutral sterols and bile acids.

[3] = system: APOE∗3-Leiden.CETP mice; assay: Second efficacy study (35 days, with atorvastatin): plasma lipids; format: in vivo, mouse
Source text: (§3) Animal experiments were approved by the governmental central committee on animal experiments (AVD5010020172064) and TNO’s animal welfare body (TNO-471 and TNO-482). Female APOE∗3-Leiden.CETP transgenic mice (11–16 weeks of age) were bred at the animal facility of TNO-InnoSer (Leiden, The Netherlands). Female animals were used in this study as they are more responsive to dietary cholesterol and fat than males and therefore typically develop atherosclerosis more rapidly than male APOE∗3-Leiden and APOE∗3-Leiden.CETP mice on cholesterol-containing diets ([33], [34]). Although measurements of atherosclerosis were not included as part of the present study, females were used with the prospect in mind that atherosclerosis studies will follow. The mice were housed under standard conditions that included 12 h light-dark cycles and access to a WTD and sterilized tap water ad libitum. Body weight, food intake, and clinical signs of behavior were monitored throughout the studies. […] Time t = 0 (weeks) was designated as the time at which mice were matched into groups after the 3-week run-in period in each efficacy study.
(§4) In both studies, blood samples were collected at weekly intervals via tail vein sampling after fasting the mice for 4 h. Blood samples were centrifugated (4500 g at 4°C), and the plasma was collected for the following analyses. Total plasma cholesterol levels were determined using a Cholesterol CHOD-PAP kit according to the manufacturer’s instructions. Plasma HDL-C levels were determined by first precipitating apoB-containing lipids using PEG 6000/glycine and then utilizing the Cholesterol CHOD-PAP kit ([35]). Non-HDL-C levels were determined by subtracting HDL-C levels from total cholesterol levels ([32]). Group-pooled lipoprotein profiles were determined by FPLC analysis using an AKTApurifier 10 FPLC system (GE Healthcare, Chicago, IL). Plasma PCSK9 levels were determined using a Mouse PCSK9 Quantikine ELISA kit as per the manufacturer’s protocol. ALT and AST levels of group-pooled samples were measured using the Roche Reflotron Plus System (Mannheim, Germany).

[4] = system: APOE∗3-Leiden.CETP mice; assay: First efficacy study: body weight, food intake, plasma AST and ALT; format: in vivo, mouse; parameters: Body weight (mean ± SD) / Food intake (mean ± SD): unit not given here; conditions: for Plasma ALT / Plasma AST: group-pooled
Source text: as §3
Treatment times were around 8:00 am and 4:00 pm each day. Throughout the in-life phase of the study, body weight and food intake (per cage) were measured at regular predetermined intervals while blood samples were collected every 7 days. The last gavage was administered on day 27. On day 28, the mice were sacrificed by CO2 asphyxiation, EDTA-plasma was obtained via heart puncture, and the liver was weighed and collected. Throughout the study, plasma cholesterol, triglycerides, HDL-C, lipoprotein profiles, PCSK9 expression levels, aspartate transaminase levels (AST), and alanine transaminase levels (ALT) were measured as described below.
as §4

[5] = biological target: T1, PCSK9-D374Y (Homo sapiens, UniProt Q8NBP7, D374Y); assay: ex vivo lymphocyte LDLR surface expression assay with recombinant PCSK9-D374Y; format: cell-based; conditions: 4 μM, relative to PCSK9 D374Y and vehicle
T1 construct: purchased CycLex (Nagano, Japan); host or cells: added to primary human lymphocytes (PBMCs from a human donor)
T1 sequence (Q8NBP7 153-692 D374Y): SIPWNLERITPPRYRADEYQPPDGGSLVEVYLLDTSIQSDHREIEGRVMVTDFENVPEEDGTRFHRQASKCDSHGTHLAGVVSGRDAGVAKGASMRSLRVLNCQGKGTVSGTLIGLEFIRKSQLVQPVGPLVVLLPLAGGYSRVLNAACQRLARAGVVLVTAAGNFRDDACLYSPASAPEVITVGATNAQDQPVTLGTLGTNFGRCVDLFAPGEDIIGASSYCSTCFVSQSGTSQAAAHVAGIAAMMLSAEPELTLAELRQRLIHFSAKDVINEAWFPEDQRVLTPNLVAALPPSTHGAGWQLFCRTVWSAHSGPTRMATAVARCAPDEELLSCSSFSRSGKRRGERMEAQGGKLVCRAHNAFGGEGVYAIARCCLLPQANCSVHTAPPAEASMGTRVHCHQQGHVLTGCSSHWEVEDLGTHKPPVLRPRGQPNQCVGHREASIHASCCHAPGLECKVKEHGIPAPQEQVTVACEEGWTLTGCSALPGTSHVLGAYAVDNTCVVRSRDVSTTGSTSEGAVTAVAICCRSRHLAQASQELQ
T1 sequence (Q8NBP7 31-152 partner limits assumed): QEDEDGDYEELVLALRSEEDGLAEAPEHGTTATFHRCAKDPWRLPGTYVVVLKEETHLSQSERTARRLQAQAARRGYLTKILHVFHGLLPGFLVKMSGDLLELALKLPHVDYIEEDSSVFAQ
Source text: (§5) Ethics was granted by the Comité de Protection des Personnes Sud Méditerranée (ID: 2020-A00196-33). Studies using human samples abided by the Declaration of Helsinki principles.

[6] = biological target: T2, PCSK9-LDLR interaction (Homo sapiens, UniProt Q8NBP7); assay: CircuLex PCSK9-LDLR in vitro binding assay; conditions: in vitro biochemical binding assay; read-out: IC50 against the PCSK9-LDLR interaction
T2 construct: purchased CycLex (Nagano, Japan) CY8150
T2 sequence (Q8NBP7 153-692): as the sequence (Q8NBP7 153-692 D374Y) above, with Y222D counted along it
T2 sequence (Q8NBP7 31-152 partner limits assumed): as the sequence (Q8NBP7 31-152 partner limits assumed) above
Source text: as §5

[7] = system: hepatic LDLR protein; assay: First efficacy study: hepatic LDLR protein (Western blotting); format: in vivo, mouse; conditions: day 28
Source text: as §1, §2
The transcript levels of select genes in the liver tissue of mice treated with either vehicle or NYX-PCSK9i were analyzed. […] Differential transcriptional activity was calculated using the 2^–ΔΔCt method.

[8] = system: plasma PCSK9 protein levels; assay: Second efficacy study: plasma total PCSK9 (ELISA); format: in vivo, mouse; conditions: 50 mg/kg BID PO, from day 7, sustained for the remaining 4 weeks
Source text: as §1
as §4, with “Blood samples were centrifugated (4500 g at 4°C), and the plasma was collected for the following analyses.” left out, “Plasma PCSK9 levels were determined using a Mouse PCSK9 Quantikine ELISA kit as per the manufacturer’s protocol. ALT and AST levels of group-pooled samples were measured using the Roche Reflotron Plus System (Mannheim, Germany).” left out

[9] = day 0 (baseline), NYX-PCSK9i 50 mg/kg BID PO
[10] = day 14, NYX-PCSK9i 50 mg/kg BID PO
[11] = day 28, NYX-PCSK9i 50 mg/kg BID PO
[12] = day 35, NYX-PCSK9i 50 mg/kg BID PO
[13] = 30 mg/kg BID PO, day 0 (baseline)
[14] = 50 mg/kg BID PO, day 0 (baseline)

Compound: Cc1cn(-c2cc(CN3CCC[C@H](N)C3)cc(NC(=O)c3cc(-c4ccccc4)ccn3)c2)cn1 [NYX-PCSK9i]
- maximal increase in plasma PCSK9 protein levels [1]: 2 fold
- share of fecal neutral sterols that was cholesterol ([2]; data not shown): more than 95%
- cholesterol balance (dietary cholesterol intake minus fecal bile acids and neutral sterols) ([2]; final week of 35-day study): negative
- Plasma HDL-cholesterol [3, 9]: 0.9 ± 0.1 mmol/L
- Plasma non- HDL-cholesterol [3, 9]: 14.6 ± 2.5 mmol/L
- Plasma triglycerides (mean ± SD) [3, 9]: 5.3 ± 1.4 mmol/L
- Plasma triglycerides (mean ± SD) ([3]; day 7, NYX-PCSK9i 50 mg/kg BID PO): 8.9 ± 3.3 mmol/L
- Plasma HDL-cholesterol [3, 10]: 0.7 ± 0.4 mmol/L
- Plasma non- HDL-cholesterol [3, 10]: 12.7 ± 0.6 mmol/L
- Plasma triglycerides (mean ± SD) [3, 10]: 8.6 ± 2.7 mmol/L
- Plasma triglycerides (mean ± SD) ([3]; day 21, NYX-PCSK9i 50 mg/kg BID PO): 7.1 ± 1.6 mmol/L
- Plasma HDL-cholesterol [3, 11]: 0.8 ± 0.2 mmol/L
- Plasma non- HDL-cholesterol [3, 11]: 11.8 ± 2.8 mmol/L
- Plasma triglycerides (mean ± SD) [3, 11]: 6.0 ± 1.7 mmol/L
- Plasma HDL-cholesterol [3, 12]: 0.7 ± 0.4 mmol/L
- Plasma non- HDL-cholesterol [3, 12]: 12.8 ± 2.8 mmol/L
- Plasma triglycerides (mean ± SD) [3, 12]: 5.8 ± 1.7 mmol/L
- Body weight (mean ± SD) [4, 13]: 21.9 ± 1.3
- Food intake (mean ± SD) [4, 13]: 3.3 ± 0.3
- Body weight (mean ± SD) ([4]; 30 mg/kg BID PO, day 7): 22.0 ± 1.6
- Food intake (mean ± SD) ([4]; 30 mg/kg BID PO, day 7): 2.7 ± 0.3
- Food intake (mean ± SD) ([4]; 30 mg/kg BID PO, day 14): 2.6 ± 0.6
- Food intake (mean ± SD) ([4]; 30 mg/kg BID PO, day 21): 2.4 ± 0.2
- Body weight (mean ± SD) ([4]; 30 mg/kg BID PO, day 28): 22.0 ± 1.1
- Food intake (mean ± SD) ([4]; 30 mg/kg BID PO, day 28): 3.0 ± 0.1
- Food intake (mean ± SD) [4, 14]: 3.3 ± 0.3
- Body weight (mean ± SD) ([4]; 50 mg/kg BID PO, day 7): 21.8 ± 1.3
- Food intake (mean ± SD) ([4]; 50 mg/kg BID PO, day 7): 2.6 ± 0.0
- Body weight (mean ± SD) ([4]; 50 mg/kg BID PO, day 14): 21.8 ± 1.1
- Food intake (mean ± SD) ([4]; 50 mg/kg BID PO, day 14): 2.9 ± 0.0
- Body weight (mean ± SD) ([4]; 50 mg/kg BID PO, day 21): 21.5 ± 1.4
- Food intake (mean ± SD) ([4]; 50 mg/kg BID PO, day 21): 2.7 ± 0.0
- Body weight (mean ± SD) ([4]; 50 mg/kg BID PO, day 28): 21.6 ± 1.1
- Food intake (mean ± SD) ([4]; 50 mg/kg BID PO, day 28): 2.7 ± 0.1
- plasma levels of the liver enzymes AST and ALT compared to vehicle ([4]; 30 and 50 mg/kg BID PO, 28 days): remained stable
- Plasma ALT [4, 13]: 76.8 U/L
- Plasma AST [4, 13]: 185.2 U/L
- Plasma ALT ([4]; 30 mg/kg BID PO, day 7): 69.6 U/L
- Plasma AST ([4]; 30 mg/kg BID PO, day 7): 175.2 U/L
- Plasma ALT ([4]; 30 mg/kg BID PO, day 14): 70.0 U/L
- Plasma AST ([4]; 30 mg/kg BID PO, day 14): 158.8 U/L
- Plasma ALT ([4]; 30 mg/kg BID PO, day 21): 55.6 U/L
- Plasma AST ([4]; 30 mg/kg BID PO, day 21): 156.8 U/L
- Plasma ALT ([4]; 30 mg/kg BID PO, day 28): 35.6 U/L
- Plasma AST ([4]; 30 mg/kg BID PO, day 28): 84 U/L
- Plasma ALT [4, 14]: 70.0 U/L
- Plasma AST [4, 14]: 170.8 U/L
- Plasma ALT ([4]; 50 mg/kg BID PO, day 7): 74.8 U/L
- Plasma AST ([4]; 50 mg/kg BID PO, day 7): 181.2 U/L
- Plasma ALT ([4]; 50 mg/kg BID PO, day 14): 56 U/L
- Plasma AST ([4]; 50 mg/kg BID PO, day 14): 147.6 U/L
- Plasma ALT ([4]; 50 mg/kg BID PO, day 21): 47.6 U/L
- Plasma AST ([4]; 50 mg/kg BID PO, day 21): 120.4 U/L
- Plasma ALT ([4]; 50 mg/kg BID PO, day 28): 38 U/L
- Plasma AST ([4]; 50 mg/kg BID PO, day 28): 107 U/L
- LDLR expression levels on surface of human lymphocytes [5]: large and significant increase in LDLR expression levels
- IC50 [6]: 323 nM
- increase in hepatic LDLR protein levels ([7]; 30 mg/kg BID PO): 46%
- increase in hepatic LDLR protein levels ([7]; 50 mg/kg BID PO): 51%
- elevation of total plasma PCSK9 levels [8]: approximately 2 fold
